Reference: PubChem BioAssay AID1918947 (Molecular Pharmacology Branch, DTP, NCI, 2023)

Tested on: A498 complex spheroid viability
Experiment: Anticancer human tumor A498 cell line growth inhibition;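 also: spheroids exposed to agents for seven days before readout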;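 as to viability, T/C: 100% = DMSO vehicle-treated spheroids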
Conditions: for IC50: curve of first compound; for viability, T/C: stronger effect = lower value
Summary of the method: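 Drug combinations with the LSD1 inhibitor iadademstat tested on tumor cells co-cultured as spheroids with endothelial cells and mesenchymal stem cells. Concentrations descended in half-log increments from clinical Cmax or 10 microM.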

[1] = second compound 0.1 µM, first compound 0.000316 µM
[2] = second compound 0.1 µM, first compound 0.001 µM
[3] = second compound 0.1 µM, first compound 0.00316 µM
[4] = second compound 0.1 µM, first compound 0.01 µM
[5] = second compound 0.1 µM, first compound 0.0316 µM
[6] = second compound 0.1 µM, first compound 0.1 µM
[7] = second compound 0.316 µM, first compound 0.000316 µM
[8] = second compound 0.316 µM, first compound 0.001 µM
[9] = second compound 0.316 µM, first compound 0.00316 µM
[10] = second compound 0.316 µM, first compound 0.01 µM
[11] = second compound 0.316 µM, first compound 0.0316 µM
[12] = second compound 0.316 µM, first compound 0.1 µM
[13] = second compound 1 µM, first compound 0.000316 µM
[14] = second compound 1 µM, first compound 0.001 µM
[15] = second compound 1 µM, first compound 0.00316 µM
[16] = second compound 1 µM, first compound 0.01 µM
[17] = second compound 1 µM, first compound 0.0316 µM
[18] = second compound 1 µM, first compound 0.1 µM
[19] = second compound 3.16 µM, first compound 0.000316 µM
[20] = second compound 3.16 µM, first compound 0.001 µM
[21] = second compound 3.16 µM, first compound 0.00316 µM
[22] = second compound 3.16 µM, first compound 0.01 µM
[23] = second compound 3.16 µM, first compound 0.0316 µM
[24] = second compound 3.16 µM, first compound 0.1 µM
[25] = second compound 10 µM, first compound 0.000316 µM
[26] = second compound 10 µM, first compound 0.001 µM
[27] = second compound 10 µM, first compound 0.00316 µM
[28] = second compound 10 µM, first compound 0.01 µM
[29] = second compound 10 µM, first compound 0.0316 µM
[30] = second compound 10 µM, first compound 0.1 µM

Compound | IC50 (second compound 0.1 µM) [nM] | IC50 (second compound 0.316 µM) [nM] | IC50 (second compound 1 µM) [nM] | IC50 (second compound 3.16 µM) [nM] | IC50 (second compound 10 µM) [nM] | viability, T/C [1] [%] | viability, T/C [2] [%] | viability, T/C [3] [%] | viability, T/C [4] [%] | viability, T/C [5] [%] | viability, T/C [6] [%] | viability, T/C [7] [%] | viability, T/C [8] [%] | viability, T/C [9] [%] | viability, T/C [10] [%] | viability, T/C [11] [%] | viability, T/C [12] [%] | viability, T/C [13] [%] | viability, T/C [14] [%] | viability, T/C [15] [%] | other results
CC(C)CC(NC(=O)C(Cc1ccccc1)NC(=O)c1cnccn1)B(O)O (stereo not given) + NC1CCC(NC2CC2c2ccccc2)CC1 | 0.966 | 0.876 | 0.765 | 0.635 | 0.527 | 82.1 | 49 | 3.94 | 1.24 | 0.46 | 0.48 | 90.5 | 44.7 | 3.08 | 1.09 | 0.41 | 0.97 | 84.5 | 39.5 | 2.52 | viability, T/C [16]: 0.84%; viability, T/C [17]: 1.13%; viability, T/C [18]: 0.61%; viability, T/C [19]: 78.5%; viability, T/C [20]: 31.5%; viability, T/C [21]: 1.91%; viability, T/C [22]: 0.54%; viability, T/C [23]: 0.31%; viability, T/C [24]: 0.35%; viability, T/C [25]: 67.6%; viability, T/C [26]: 28%; viability, T/C [27]: 1.67%; viability, T/C [28]: 0.4%; viability, T/C [29]: 0.26%; viability, T/C [30]: 0.41%
CC[C@@]1(O)C(=O)OCc2c1cc1n(c2=O)Cc2cc3c(CN(C)C)c(O)ccc3nc2-1 + NC1CC1c1ccc(-c2cccc(O)c2)cc1 | 42.5 | 43.7 | 37.8 | 30.2 | 26.1 | 105 | 106 | 79.1 | 76.4 | 60.6 | 29.8 | 110 | 103 | 82.2 | 73.1 | 59.6 | 33.8 | 102 | 103 | 86.5 | viability, T/C [16]: 69.4%; viability, T/C [17]: 55.8%; viability, T/C [18]: 32.9%; viability, T/C [19]: 104%; viability, T/C [20]: 95.4%; viability, T/C [21]: 74.6%; viability, T/C [22]: 60.5%; viability, T/C [23]: 58.8%; viability, T/C [24]: 29.5%; viability, T/C [25]: 103%; viability, T/C [26]: 92.4%; viability, T/C [27]: 75.8%; viability, T/C [28]: 65.5%; viability, T/C [29]: 49%; viability, T/C [30]: 27.7%
